Assay results as given in US6660768B2, “Parasiticidal compositions and methods of use” (Schering-Plough Animal Health Corporation, priority 2001, dated 2003).

Legend:
[1] = Example 3B: solubility of permethrin in PM (propylene glycol monomethyl ether), DM (diethylene glycol monomethyl ether) and PM or DPM (dipropylene glycol monomethyl ether)/d-limonene mixtures at low temperatures, seeded
Protocol: (§1) These solutions were poured into 100 mL tubes with screw top caps. These tubes were placed in the cold water bath and allowed to come to equilibrium at the temperature of the bath. […] The seeded preparations were then thoroughly shaken, replaced in the bath and allowed to remain in the bath for a 24 hour period. The preparations were then examined for crystallization, then again thoroughly agitated and replaced in the bath for an additional time period. Samples of the supernatant were removed after additional crystallization had occurred.
The solvent mixtures tested were: dipropylene glycol monomethyl ether/d-limonene and propylene glycol monomethyl ether/d-limonene.
These solvent mixtures were evaluated at ratios of 2:1, 1:1, 1:2, and then at 8:2 and 9:1 (the first number refers to one of the glycol ethers, the second number refers to d-limonene).

[2] = Example 3A: relative solubility of permethrin in neat solvents, seeded solutions in cold bath, supernatant assayed
Protocol: as §1
After 24 hours the tubes were examined for the relative amount of crystallization that may have occurred in each of the solutions. Where crystallization had occurred, samples of the supernatant were pulled from the vials and the temperature of the bath was lowered to 15° C.
Samples were again taken for assay from the solutions of hexylene glycol and methyl Carbitol® (diethylene glycol monomethyl ether).

[3] = Example 3D: solubility of permethrin in propylene glycol monomethyl ether at 20° C. after crystallization at 0° C.; format: physicochemical
Protocol: The solution was placed in the bath, and continually stirred. The bath temperature was lowered to 0° C. After crystallization occurred in the solution, the bath temperature setting was raised to 20° C. and the stirred slurry was allowed to equilibrate over a three-day period. After this time, samples of the supernatant were pulled on consecutive days. The crystals were separated from the liquid layer by filtration, and the crystals were washed with petroleum ether. […] The crystals were washed to remove any residual solution that might contaminant their analysis.

[4] = Diethylene Glycol Monomethyl Ether, Initial
[5] = Dipropylene Glycol Monomethyl Ether, Initial
[6] = Propylene Glycol Monomethyl Ether, Initial

## CC1(C)C(C=C(Cl)Cl)C1C(=O)OCc1cccc(Oc2ccccc2)c1 (stereo not drawn) [permethrin]
[1]; DM, 5° C., Original % permethrin 50
  % permethrin remaining in solution: 46.00%
[1]; DM, 5° C., Original % permethrin 55
  % permethrin remaining in solution: 51.74%
[1]; DM, 5° C., Original % permethrin 60
  % permethrin remaining in solution: 55.09%
[1]; DM, 5° C., Original % permethrin 65
  % permethrin remaining in solution: 60.22%
[1]; DM, 10° C., Original % permethrin 50
  % permethrin remaining in solution: 46.80%
[1]; DM, 10° C., Original % permethrin 55
  % permethrin remaining in solution: 50.72%
[1]; DM, 10° C., Original % permethrin 60
  % permethrin remaining in solution: 56.17%
[1]; DM, 20° C., Original % permethrin 50
  % permethrin remaining in solution: 50.55%
[1]; DM, 20° C., Original % permethrin 55
  % permethrin remaining in solution: 55.14%
[1]; DM, 20° C., Original % permethrin 60
  % permethrin remaining in solution: 60.05%
[1]; DM, 20° C., Original % permethrin 65
  % permethrin remaining in solution: 64.85%
[1]; DM, 20° C., Original % permethrin 75
  % permethrin remaining in solution: 74.20%
[1]; DM, 25° C., Original % permethrin 50
  % permethrin remaining in solution: 49.43%
[1]; DM, 25° C., Original % permethrin 55
  % permethrin remaining in solution: 53.98%
[1]; DM, 25° C., Original % permethrin 60
  % permethrin remaining in solution: 61.10%
[1]; DM, 25° C., Original % permethrin 65
  % permethrin remaining in solution: 64.25%
[1]; DM, 25° C., Original % permethrin 75
  % permethrin remaining in solution: 74.53%
[1]; PM, 5° C., Original % permethrin 50
  % permethrin remaining in solution: 46.61%
[1]; PM, 5° C., Original % permethrin 55
  % permethrin remaining in solution: 52.71%
[1]; PM, 5° C., Original % permethrin 60
  % permethrin remaining in solution: 56.69%
[1]; PM, 5° C., Original % permethrin 65
  % permethrin remaining in solution: 61.50%
[1]; PM, 5° C., Original % permethrin 75
  % permethrin remaining in solution: 70.89%
[1]; PM, 10° C., Original % permethrin 60
  % permethrin remaining in solution: 59.08%
[1]; PM, 10° C., Original % permethrin 65
  % permethrin remaining in solution: 61.63%
[1]; PM, 10° C., Original % permethrin 75
  % permethrin remaining in solution: 72.22%
[1]; PM, 20° C., Original % permethrin 50
  % permethrin remaining in solution: 50.60%
[1]; PM, 20° C., Original % permethrin 55
  % permethrin remaining in solution: 55.54%
[1]; PM, 20° C., Original % permethrin 60
  % permethrin remaining in solution: 61.27%
[1]; PM, 20° C., Original % permethrin 65
  % permethrin remaining in solution: 66.25%
[1]; PM, 20° C., Original % permethrin 75
  % permethrin remaining in solution: 76.84%
[1]; PM, 25° C., Original % permethrin 50
  % permethrin remaining in solution: 51.28%
[1]; PM, 25° C., Original % permethrin 55
  % permethrin remaining in solution: 56.19%
[1]; PM, 25° C., Original % permethrin 60
  % permethrin remaining in solution: 60.99%
[1]; PM, 25° C., Original % permethrin 65
  % permethrin remaining in solution: 66.71%
[1]; PM, 25° C., Original % permethrin 75
  % permethrin remaining in solution: 75.82%
[2]; Diethylene Glycol Monomethyl Ether, 20° C.
  Permethrin: 75.02%
[2]; Diethylene Glycol Monomethyl Ether, 25° C.
  Permethrin: 74.90%
[2]; [4]
  Cis Isomer: 28.79%
  Permethrin: 69.70%
  Trans Isomer: 40.91%
[2]; Diethylene Glycol Monomethyl Ether, […] C.
  Permethrin: 74.44%
[2]; Dipropylene Glycol Monomethyl Ether, 15° C.
  Permethrin: 73.83%
[2]; Dipropylene Glycol Monomethyl Ether, 20° C.
  Permethrin: 75.15%
[2]; Dipropylene Glycol Monomethyl Ether, 25° C.
  Permethrin: 75.39%
[2]; [5]
  Cis Isomer: 29.41%
  Permethrin: 70.35%
  Trans Isomer: 40.94%
[2]; Examples 3A-3D, low temperatures, order: d-limonene, PM, DPM, diethylene glycol monomethyl ether, hexylene glycol
  solubility among the tested solvents: greatest solubility in d-limonene
[2]; Hexylene Glycol, 25° C.
  Permethrin: 75.02%
[2]; Hexylene Glycol, Initial
  Cis Isomer: 29.77%
  Permethrin: 71.09%
  Trans Isomer: 41.32%
[2]; Hexylene Glycol, […] C.
  Permethrin: 74.37%
[2]; Propylene Glycol Monomethyl Ether, 15° C.
  Permethrin: 74.85%
[2]; Propylene Glycol Monomethyl Ether, 20° C.
  Permethrin: 74.84%
[2]; Propylene Glycol Monomethyl Ether, 25° C.
  Permethrin: 75.66%
[2]; [6]
  Cis Isomer: 29.55%
  Permethrin: 70.78%
  Trans Isomer: 40.22%
[2]; d-limonene, 20° C.
  Permethrin: 74.84%
[2]; d-limonene, 25° C.
  Permethrin: 75.29%
[2]; d-limonene, Initial
  Cis Isomer: 29.54%
  Permethrin: 70.43%
  Trans Isomer: 40.89%
[3]; Assay of Crystals (filtered, washed), as the cis isomer
  % Permethrin: 100% as the cis isomer
[3]; Initial Assay of 70% Solution in propylene glycol monomethyl ether
  % Permethrin: 72.86%
[3]; in propylene glycol monomethyl ether, 20° C.
  solubility of permethrin: greater than 70%
[3]; supernatant, propylene glycol monomethyl ether, 20° C., 2nd Day after Equilibrium Reached
  % Permethrin: 72.96%
[3]; supernatant, propylene glycol monomethyl ether, 20° C., Assay after Equilibrium Reached
  % Permethrin: 72.93%
